What was measured:
dallisgrass = assay: Test F preemergence test; type: in vivo, Paspalum dilatatum; conditions: scale 0 to 100
Summary of the method: (§1)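 Compound in a non-phytotoxic solvent blend with surfactant is applied preemergence to planted seeds or postemergence to sugarcane plants. Plants and controls stay in the greenhouse 14 to 21 days before visual comparison.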

kochia = assay: Test F preemergence test; type: in vivo, Kochia scoparia; conditions: scale 0 to 100
Summary of the method: as §1

umbrella sedge = assay: Test C flooded paddy test; type: in vivo, Cyperus difformis; conditions: Flood
Summary of the method: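 Test compounds are applied straight into paddy water held 3 cm above the soil surface, with that flood maintained for the whole test. After 13 to 15 days in the greenhouse, each species is scored visually relative to controls.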

quackgrass = assay: Test F preemergence test; type: in vivo, Elytrigia repens; conditions: scale 0 to 100
Summary of the method: as §1

common groundsel = assay: Test F preemergence test; type: in vivo, Senecio vulgaris; conditions: scale 0 to 100
Summary of the method: as §1

wheat = assay: Test A pre-/postemergence greenhouse test; type: in vivo, Triticum aestivum; conditions: for Wheat plant response rating: 0 to 100 scale; for Plant response rating, Wheat: 0 to 100 scale where 0 is no effect and 100 is complete control
Summary of the method: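 Visual injury ratings against untreated controls, taken roughly ten days after treatment in greenhouse. Plants were sprayed postemergence at one- to two-leaf stage (2–10 cm tall); at the same time, seeded loam/sand soil received a directed preemergence spray. Formulation: non-phytotoxic solvent mixture with surfactant.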

common mallow = assay: Test F preemergence test; type: in vivo, Malva sylvestris; conditions: scale 0 to 100
Summary of the method: as §1

annual bluegrass = assay: Test F preemergence test; type: in vivo, Poa annua; conditions: scale 0 to 100
Summary of the method: as §1

mustard = assay: Test F preemergence test; type: in vivo, Brassica nigra; conditions: scale 0 to 100
Summary of the method: as §1

green foxtail = assay: Test F preemergence test; type: in vivo, Setaria viridis; conditions: scale 0 to 100
Summary of the method: as §1

crabgrass = assay: Test C pre-/postemergence test; type: in vivo, Digitaria sanguinalis
Summary of the method: (§2)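 Compounds in a non-phytotoxic solvent with surfactant applied preemergence to seeded pots and, at the same time, postemergence to plants 2–18 cm tall (1- to 4-leaf stage). Paddy tests: pots flooded to 3 cm, compound applied into the water, depth held throughout.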

Goosegrass = assay: Test C pre-/postemergence test; type: in vivo, Eleusin indica
Summary of the method: as §2

[1] = 250 g ai/ha, scale 0 to 100, 0 no effect, 100 complete control, 13 to 15 days
[2] = Postemergence, 500 g ai/ha, 0 is no effect, 100 is complete control
[3] = Preemergence, 125 g ai/ha, 0 no effect, 100 complete control
[4] = 62 g ai/ha, Preemergence, scale 0 to 100
[5] = Preemergence, 31 g ai/ha, scale 0 to 100 (0 no effect, 100 complete control)
[6] = 125 g ai/ha, preemergence, scale 0 (no effect) to 100 (complete control)
[7] = Postemergence, 62 g ai/ha, scale 0 to 100, 0 no effect, 100 complete control
[8] = Postemergence, 125 g ai/ha, scale 0 to 100, 0 no effect, 100 complete control
[9] = Postemergence, 250 g ai/ha, scale 0 to 100, 0 no effect, 100 complete control
[10] = preemergence, 250 g ai/ha, scale 0 (no effect) to 100 (complete control)

Q: How did the “Plant response rating, Dallisgrass” value (dallisgrass; 16 g ai/ha, preemergence) turn out when `Cc1cc[n+]([O-])c(S(=O)(=O)Cc2c(C(F)(F)F)nn(C)c2OCC(F)(F)F)c1` [Compound 31] was run?
A: 35

Q: What about the “Dallisgrass plant response rating” value (dallisgrass; 62 g ai/ha, Preemergence) of the same compound?
A: 95

Q: What about the “Dallisgrass plant response rating” value (dallisgrass; 125 g ai/ha, preemergence) of the same compound?
A: 100

Q: What about the “Plant response rating, Dallisgrass” value (dallisgrass; Preemergence, 31 g ai/ha) of the same compound?
A: 60

Q: What about the “Plant response rating, Kochia” value (kochia; 16 g ai/ha, preemergence) of the same compound?
A: 0

Q: What about the “Kochia plant response rating” value (kochia; 62 g ai/ha, Preemergence) of the same compound?
A: 65

Q: And the “Kochia plant response rating” value (kochia; 125 g ai/ha, preemergence)?
A: 100

Q: What about the “Plant response rating, Kochia” value (kochia; Preemergence, 31 g ai/ha) of the same compound?
A: 0

Q: What about the “Plant response rating, Sedge, Umbrella” value (umbrella sedge; 31 g ai/ha, scale 0 to 100 (0 no effect, 100 complete control)) of the same compound?
A: 65

Q: And the “Plant response rating, Sedge, Umbrella” value (umbrella sedge; 62 g ai/ha, scale 0 to 100, 0 no effect, 100 complete control, 13 to 15 days)?
A: 85

Q: And the “Plant response rating, Sedge, Umbrella” value (umbrella sedge; 125 g ai/ha, scale 0 to 100, 0 no effect, 100 complete control, 13 to 15 days)?
A: 100

Q: And the “Plant response rating, Sedge, Umbrella” value (umbrella sedge; [1])?
A: 100

Q: And the “Plant response rating, Quackgrass” value (quackgrass; 16 g ai/ha, preemergence)?
A: 15

Q: And the “Quackgrass plant response rating” value (quackgrass; 62 g ai/ha, Preemergence)?
A: 75

Q: And the “Quackgrass plant response rating” value (quackgrass; 125 g ai/ha, preemergence)?
A: 95

Q: And the “Plant response rating, Quackgrass” value (quackgrass; Preemergence, 31 g ai/ha)?
A: 65

Q: What about the “Groundsel plant response rating” value (common groundsel; 125 g ai/ha, preemergence) of the same compound?
A: 100

Q: What about the “Wheat plant response rating” value (wheat; Postemergence, 125 g ai/ha, 0 is no effect, 100 is complete control) of the same compound?
A: 50

Q: And the “Wheat plant response rating” value (wheat; [2])?
A: 60

Q: And the “Wheat plant response rating” value (wheat; [3])?
A: 60

Q: And the “Plant response rating, Wheat” value (wheat; Preemergence, 500 g ai/ha)?
A: 80

Q: And the “Plant response rating, Mallow” value (common mallow; 16 g ai/ha, preemergence)?
A: 0

Q: What about the “Mallow plant response rating” value (common mallow; 62 g ai/ha, Preemergence) of the same compound?
A: 100

Q: And the “Mallow plant response rating” value (common mallow; 125 g ai/ha, preemergence)?
A: 100

Q: And the “Plant response rating, Mallow” value (common mallow; Preemergence, 31 g ai/ha)?
A: 100

Q: What about the “Plant response rating, Bluegrass” value (annual bluegrass; 16 g ai/ha, preemergence) of the same compound?
A: 35

Q: And the “Bluegrass plant response rating” value (annual bluegrass; 62 g ai/ha, Preemergence)?
A: 75

Q: What about the “Bluegrass plant response rating” value (annual bluegrass; 125 g ai/ha, preemergence) of the same compound?
A: 90

Q: What about the “Plant response rating, Bluegrass” value (annual bluegrass; Preemergence, 31 g ai/ha) of the same compound?
A: 65

Q: And the “Plant response rating, Black Mustard” value (mustard; 16 g ai/ha, preemergence)?
A: 40

Q: And the “Black Mustard plant response rating” value (mustard; 62 g ai/ha, Preemergence)?
A: 100

Q: What about the “Black Mustard plant response rating” value (mustard; 125 g ai/ha, preemergence) of the same compound?
A: 100

Q: And the “Plant response rating, Black Mustard” value (mustard; Preemergence, 31 g ai/ha)?
A: 95

Q: What about the “Plant response rating, Foxtail, Green” value (green foxtail; 16 g ai/ha, preemergence) of the same compound?
A: 60

Q: And the “Foxtail, Green plant response rating” value (green foxtail; 62 g ai/ha, Preemergence)?
A: 100

Q: What about the “Foxtail, Green plant response rating” value (green foxtail; 125 g ai/ha, preemergence) of the same compound?
A: 100

Q: What about the “Plant response rating, Foxtail, Green” value (green foxtail; Preemergence, 31 g ai/ha) of the same compound?
A: 95

Q: What about the “Crabgrass, Large plant response rating” value (crabgrass; [4]) of the same compound?
A: 100

Q: What about the “Plant response rating, Crabgrass, Large” value (crabgrass; [5]) of the same compound?
A: 100

Q: What about the “Plant response rating (0 to 100), Crabgrass, Large” value (crabgrass; Preemergence, 250 g ai/ha) of the same compound?
A: 100

Q: And the “Goosegrass plant response rating” value (Goosegrass; [4])?
A: 100

Q: What about the “Plant response rating, Goosegrass” value (Goosegrass; [5]) of the same compound?
A: 100

Q: What about the “Plant response rating (0 to 100), Goosegrass” value (Goosegrass; Preemergence, 250 g ai/ha) of the same compound?
A: 100

Q: How did the “Dallisgrass plant response rating” value (dallisgrass; 62 g ai/ha, Preemergence) turn out when `Cn1nc(C(F)(F)F)c(C[S+]([O-])c2ccc(F)c[n+]2[O-])c1OC(F)F` (stereo not drawn) [Compound 58] was run?
A: 90

Q: And the “Dallisgrass plant response rating” value (dallisgrass; 125 g ai/ha, preemergence)?
A: 98

Q: What about the “Dallisgrass plant response rating” value (dallisgrass; 250 g ai/ha, preemergence) of the same compound?
A: 98

Q: What about the “Plant response rating, Dallisgrass” value (dallisgrass; Preemergence, 31 g ai/ha) of the same compound?
A: 75

Q: And the “Kochia plant response rating” value (kochia; 62 g ai/ha, Preemergence)?
A: 40

Q: And the “Kochia plant response rating” value (kochia; 125 g ai/ha, preemergence)?
A: 100

Q: And the “Kochia plant response rating” value (kochia; 250 g ai/ha, preemergence)?
A: 100

Q: What about the “Plant response rating, Kochia” value (kochia; Preemergence, 31 g ai/ha) of the same compound?
A: 20

Q: And the “Plant response rating, Sedge, Umbrella” value (umbrella sedge; 62 g ai/ha, scale 0 to 100 (0 no effect, 100 complete control))?
A: 80

Q: What about the “Plant response rating, Sedge, Umbrella” value (umbrella sedge; [1]) of the same compound?
A: 80

Q: And the “Quackgrass plant response rating” value (quackgrass; 62 g ai/ha, Preemergence)?
A: 70

Q: What about the “Quackgrass plant response rating” value (quackgrass; 125 g ai/ha, preemergence) of the same compound?
A: 95

Q: What about the “Quackgrass plant response rating” value (quackgrass; 250 g ai/ha, preemergence) of the same compound?
A: 100

Q: What about the “Plant response rating, Quackgrass” value (quackgrass; Preemergence, 31 g ai/ha) of the same compound?
A: 35

Q: And the “Groundsel plant response rating” value (common groundsel; 62 g ai/ha, Preemergence)?
A: 60

Q: And the “Groundsel plant response rating” value (common groundsel; 125 g ai/ha, preemergence)?
A: 85

Q: What about the “Groundsel plant response rating” value (common groundsel; 250 g ai/ha, preemergence) of the same compound?
A: 100

Q: What about the “Plant response rating, Groundsel” value (common groundsel; Preemergence, 31 g ai/ha) of the same compound?
A: 20

Q: What about the “Plant response rating, Wheat” value (wheat; Postemergence, 125 g ai/ha) of the same compound?
A: 60

Q: What about the “Wheat plant response rating” value (wheat; [2]) of the same compound?
A: 70

Q: And the “Wheat plant response rating” value (wheat; [3])?
A: 60

Q: And the “Plant response rating, Wheat” value (wheat; Preemergence, 500 g ai/ha)?
A: 100

Q: What about the “Mallow plant response rating” value (common mallow; 62 g ai/ha, Preemergence) of the same compound?
A: 25

Q: What about the “Mallow plant response rating” value (common mallow; 125 g ai/ha, preemergence) of the same compound?
A: 90

Q: What about the “Mallow plant response rating” value (common mallow; 250 g ai/ha, preemergence) of the same compound?
A: 100

Q: What about the “Bluegrass plant response rating” value (annual bluegrass; 62 g ai/ha, Preemergence) of the same compound?
A: 70

Q: What about the “Bluegrass plant response rating” value (annual bluegrass; 125 g ai/ha, preemergence) of the same compound?
A: 95

Q: What about the “Bluegrass plant response rating” value (annual bluegrass; 250 g ai/ha, preemergence) of the same compound?
A: 100

Q: What about the “Plant response rating, Bluegrass” value (annual bluegrass; Preemergence, 31 g ai/ha) of the same compound?
A: 0

Q: What about the “Black Mustard plant response rating” value (mustard; 62 g ai/ha, Preemergence) of the same compound?
A: 60

Q: And the “Black Mustard plant response rating” value (mustard; 125 g ai/ha, preemergence)?
A: 100

Q: What about the “Black Mustard plant response rating” value (mustard; 250 g ai/ha, preemergence) of the same compound?
A: 100

Q: What about the “Plant response rating, Black Mustard” value (mustard; Preemergence, 31 g ai/ha) of the same compound?
A: 50

Q: What about the “Foxtail, Green plant response rating” value (green foxtail; 62 g ai/ha, Preemergence) of the same compound?
A: 95

Q: What about the “Foxtail, Green plant response rating” value (green foxtail; 125 g ai/ha, preemergence) of the same compound?
A: 100

Q: And the “Foxtail, Green plant response rating” value (green foxtail; 250 g ai/ha, preemergence)?
A: 100

Q: And the “Plant response rating, Foxtail, Green” value (green foxtail; Preemergence, 31 g ai/ha)?
A: 60

Q: What about the “Crabgrass, Large plant response rating” value (crabgrass; [4]) of the same compound?
A: 100

Q: And the “Crabgrass, Large plant response rating” value (crabgrass; [6])?
A: 100

Q: And the “Plant response rating (0 to 100), Crabgrass, Large” value (crabgrass; Postemergence, 31 g ai/ha)?
A: 0

Q: What about the “Plant response rating, Crabgrass, Large” value (crabgrass; [7]) of the same compound?
A: 0

Q: What about the “Plant response rating, Crabgrass, Large” value (crabgrass; [8]) of the same compound?
A: 0

Q: What about the “Plant response rating, Crabgrass, Large” value (crabgrass; [9]) of the same compound?
A: 45

Q: And the “Plant response rating, Crabgrass, Large” value (crabgrass; [5])?
A: 50

Q: What about the “Crabgrass, Large plant response rating” value (crabgrass; [10]) of the same compound?
A: 100

Q: What about the “Goosegrass plant response rating” value (Goosegrass; [4]) of the same compound?
A: 90

Q: And the “Goosegrass plant response rating” value (Goosegrass; [6])?
A: 100

Q: And the “Plant response rating (0 to 100), Goosegrass” value (Goosegrass; Postemergence, 31 g ai/ha)?
A: 0

Q: What about the “Plant response rating, Goosegrass” value (Goosegrass; [7]) of the same compound?
A: 0

Q: And the “Plant response rating, Goosegrass” value (Goosegrass; [8])?
A: 5

Q: And the “Plant response rating, Goosegrass” value (Goosegrass; [9])?
A: 60

Q: And the “Plant response rating, Goosegrass” value (Goosegrass; [5])?
A: 80

Q: And the “Goosegrass plant response rating” value (Goosegrass; [10])?
A: 100

Reference: patent publication US20100298141A1, “SUBSTITUTED PYRIDINE N-OXIDE HERBICIDES” (E. I. DU PONT DE NEMOURS AND COMPANY, priority 2007, published 2010)
